Like-named read-outs stand apart in the source and are kept apart here.
Experiments:
[1] = Solubility in water; type: physicochemical
[2] = tested on: pakchoi; assay: Pot experiment under drought treatment, terrein seed soaking or spraying, pakchoi; type: in vivo
Description: (§1) An embodiment of effects of 2 μg/mL terrein formulation on the growth of four crops by seed soaking treatment under drought conditions is as follows. Terrein (purity 95%) is prepared as a solution with a concentration of 2 μg/mL in distilled water, and pakchoi, mung bean, sorghum, and wheat seeds are soaked in it for 6 hours, and the seeds are also soaked in distilled water as a blank control. Subsequently, the soaked crop seeds are sown into potted plants, and each of the treatment group is replicated five times. When the seedlings grew to about 10 cm, the drought treatment culture is carried out. The room temperature is 25° C., the humidity is 70%, 12 hours of light and 12 hours of darkness each day, and the light intensity is 80-100 μmol·m^−2·s^−1. During the period, the soil was kept in a dry state, and 200 mL is watered every week for 30 days, with a total of 800 mL. The drought culture conditions described below are all treated in the same way. After 30 days, the root length, seedling height, and fresh weight of pakchoi, mung bean, sorghum, and wheat are measured, and 10 seedlings are selected from each of the treatment groups, with a total of 50 plants (N=50), hereafter, they are dried in an oven and then measured dry weight. The growth rates of root length, seedling height, fresh weight, and dry weight of pakchoi, mung bean, sorghum, and wheat under 2 μg/mL compared to the blank control are first calculated, that is, An embodiment of effects of 10 μg/mL terrein formulation on the growth of four crops by seed soaking treatment under drought conditions is as follows. Terrein is prepared as a solution with a concentration of 10 μg/mL in distilled water, and pakchoi, mung bean, sorghum, and wheat seeds are soaked in it for 6 hours, and the seeds are also soaked in distilled water as a blank control. Subsequently, the soaked crop seeds are sown into potted plants. When the seedlings grew to about 10 cm, the drought treatment culture is carried out. After 30 days, the root length, seedling height, and fresh weight of pakchoi, mung bean, sorghum, and wheat are measured, hereafter, they are dried in an oven and then measured dry weight. An embodiment of effects of 2 μg/mL terrein formulation on the growth of four crops by spraying treatment under drought conditions is as follows. Seeds of four tested plants are soaked in distilled water and then sowing. Terrein is prepared as a solution with a concentration of 2 μg/mL in distilled water. When the potted pakchoi, mung bean, sorghum, and wheat grow to about 10 cm (15-20 days after sowing), spray them once, with an amount of about 3 mL, and distilled water sprayed used as blank control. Subsequently, the drought treatment culture is carried out. The room temperature is 25° C., the humidity is 70%, 12 hours of light and 12 hours of darkness each day, and the light intensity is 80-100 μmol·m^−2·s^−1. During the period, the soil was kept in a dry state, and 200 mL is watered every week for 30 days, with a total of 800 mL. After 30 days, the root length, seedling height, and fresh weight of pakchoi, mung bean, sorghum, and wheat are measured, hereafter, they are dried in an oven and then measured dry weight. An embodiment of effects of 10 μg/mL terrein formulation on the growth of four crops by spraying treatment under drought conditions is as follows. Seeds of four tested plants are soaked in distilled water and then sowing. Terrein is prepared as a solution with a concentration of 10 μg/mL in distilled water. When the potted pakchoi, mung bean, sorghum, and wheat grow to about 10 cm (15-20 days after sowing), spray them once, with an amount of about 3 mL, and distilled water sprayed used as blank control. Subsequently, the drought treatment is carried out. After 30 days, the root length, seedling height, and fresh weight of pakchoi, mung bean, sorghum, and wheat are measured, hereafter, they are dried in an oven and then measured dry weight. […]

[3] = tested on: sorghum; assay: Pot experiment under drought treatment, terrein seed soaking or spraying, sorghum; type: in vivo
Description: as §1

[4] = tested on: mung bean; assay: Pot experiment under drought treatment, terrein seed soaking or spraying, mung bean; type: in vivo
Description: as §1

[5] = tested on: wheat; assay: Pot experiment under drought treatment, terrein seed soaking or spraying, wheat; type: in vivo
Description: as §1

[6] = tested on: pakchoi; assay: Indoor petri dish bioassay, pakchoi under drought treatment conditions; type: in vivo; settings: for inhibition at 250 µg/mL: terrein 250 μg/mL
Description: The present invention has done corresponding indoor petri dish bioassay experiments before, with pakchoi under drought treatment conditions as the recipient plant, terrein as the donor, and the concentration of terrein is set to 0, 2, 10, 50 and 250 μg/mL. […] Therefore, the present invention only selects low concentrations (2 μg/mL, 10 μg/mL) for experiments to confirm the effect of terrein on drought resistance and growth promotion of crops in outdoor pot experiments.

[7] = 2 μg/mL terrein seed soaking treatment, drought, 30 days
[8] = 2 μg/mL terrein seed soaking, drought, 30 days
[9] = 2 μg/mL terrein seed soaking, drought, 30 days, p<0.05
[10] = 2 μg/mL terrein spraying at seedling stage
[11] = 2 μg/mL terrein spraying treatment, drought, 30 days
[12] = 2 μg/mL terrein spraying, drought, 30 days
[13] = 10 μg/mL terrein seed soaking treatment, drought, 30 days
[14] = 10 μg/mL terrein seed soaking, drought
[15] = 10 μg/mL terrein seed soaking, drought, 30 days
[16] = 10 μg/mL terrein spraying treatment, drought, 30 days
[17] = 10 μg/mL terrein spraying, drought
[18] = 10 μg/mL terrein spraying, drought, 30 days

Q: What does the source list for C/C=C/C1=CC(=O)[C@H](O)[C@H]1O [terrein]?
A: solubility in water [1]: easily soluble in water; effect on growth ([2]; 2 μg/mL terrein seed soaking): significantly promote; dry weight [2, 7]: 0.16 g; fresh weight [2, 7]: 1.91 g; root length [2, 7]: 15.46 cm; seedling height [2, 7]: 11.45 cm; growth rate of dry weight compared with the blank control [2, 8]: 32.47%; growth rate of root length compared with the blank control [2, 8]: 76.63%; effect on fresh weight compared with the blank control [2, 9]: not significant; effect on seedling height compared with the blank control [2, 9]: not significant; effect on growth [2, 10]: significant promoting effect; dry weight [2, 11]: 0.13 g; fresh weight [2, 11]: 1.75 g; root length [2, 11]: 11.59 cm; seedling height [2, 11]: 11.40 cm; growth rate of root length compared with the blank control [2, 12]: 32.48%; dry weight [2, 13]: 0.18 g; fresh weight [2, 13]: 2.45 g; root length [2, 13]: 17.43 cm; seedling height [2, 13]: 12.21 cm; effect on growth [2, 14]: significant promoting effect; growth rate (promotion rate) of dry weight compared with the blank control [2, 15]: 49.12%; growth rate (promotion rate) of fresh weight compared with the blank control [2, 15]: 40.34%; growth rate (promotion rate) of root length compared with the blank control [2, 15]: 99.19%; growth rate (promotion rate) of seedling height compared with the blank control [2, 15]: 15.66%; dry weight [2, 16]: 0.14 g; fresh weight [2, 16]: 1.85 g; root length [2, 16]: 10.19 cm; seedling height [2, 16]: 10.73 cm; effect on growth [2, 17]: significant promoting effects; growth rate of root length compared with the blank control [2, 18]: 16.45%; dry weight [3, 7]: 0.37 g; fresh weight [3, 7]: 1.71 g; root length [3, 7]: 35.67 cm; seedling height [3, 7]: 40.43 cm; effect on growth [3, 8]: no significant effect; effect on growth [3, 10]: significant promoting effect; dry weight [3, 11]: 0.40 g; fresh weight [3, 11]: 1.92 g; root length [3, 11]: 38.15 cm; seedling height [3, 11]: 39.14 cm; growth rate of dry weight compared with the blank control [3, 12]: 20.80%; growth rate of fresh weight compared with the blank control [3, 12]: 18.92%; growth rate of root length compared with the blank control [3, 12]: 18.49%; dry weight [3, 13]: 0.38 g; fresh weight [3, 13]: 1.88 g; root length [3, 13]: 33.99 cm; seedling height [3, 13]: 39.69 cm; effect on growth [3, 14]: significant promoting effect; growth rate of dry weight compared with the blank control [3, 15]: 15.42%; dry weight [3, 16]: 0.42 g; fresh weight [3, 16]: 1.93 g; root length [3, 16]: 42.01 cm; seedling height [3, 16]: 38.16 cm; effect on growth [3, 17]: significant promoting effects; growth rate (promotion rate) of dry weight compared with the blank control [3, 18]: 25.19%; growth rate (promotion rate) of fresh weight compared with the blank control [3, 18]: 19.90%; growth rate (promotion rate) of root length compared with the blank control [3, 18]: 30.50%; effect on growth ([4]; 2 μg/mL terrein seed soaking): significantly promote; dry weight [4, 7]: 0.15 g; fresh weight [4, 7]: 0.98 g; root length [4, 7]: 14.19 cm; seedling height [4, 7]: 22.54 cm; growth rate of dry weight compared with the blank control [4, 8]: 28.07%; growth rate of root length compared with the blank control [4, 8]: 44.72%; effect on fresh weight compared with the blank control [4, 9]: not significant; effect on seedling height compared with the blank control [4, 9]: not significant; effect on growth [4, 10]: significant promoting effect; dry weight [4, 11]: 0.14 g; fresh weight [4, 11]: 0.92 g; root length [4, 11]: 15.88 cm; seedling height [4, 11]: 23.99 cm; growth rate of root length compared with the blank control [4, 12]: 61.95%; dry weight [4, 13]: 0.16 g; fresh weight [4, 13]: 0.87 g; root length [4, 13]: 12.84 cm; seedling height [4, 13]: 24.21 cm; effect on growth [4, 14]: significant promoting effect; growth rate of dry weight compared with the blank control [4, 15]: 35.65%; growth rate of root length compared with the blank control [4, 15]: 30.92%; dry weight [4, 16]: 0.15 g; fresh weight [4, 16]: 1.16 g; root length [4, 16]: 15.42 cm; seedling height [4, 16]: 22.08 cm; effect on growth [4, 17]: significant promoting effects; growth rate (promotion rate) of dry weight compared with the blank control [4, 18]: 26.98%; growth rate (promotion rate) of fresh weight compared with the blank control [4, 18]: 56.18%; growth rate (promotion rate) of root length compared with the blank control [4, 18]: 57.20%; effect on growth ([5]; 2 μg/mL terrein seed soaking): significantly promote; dry weight [5, 7]: 0.26 g; fresh weight [5, 7]: 1.10 g; root length [5, 7]: 16.13 cm; seedling height [5, 7]: 21.55 cm; promotion rate of dry weight compared with the blank control [5, 8]: 21.99%; promotion rate of fresh weight compared with the blank control [5, 8]: 52.30%; effect on growth [5, 10]: significant promoting effect; dry weight [5, 11]: 0.25 g; fresh weight [5, 11]: 1.16 g; root length [5, 11]: 17.02 cm; seedling height [5, 11]: 18.93 cm; growth rate of dry weight compared with the blank control [5, 12]: 16.29%; growth rate of fresh weight compared with the blank control [5, 12]: 60.98%; dry weight [5, 13]: 0.26 g; fresh weight [5, 13]: 1.27 g; root length [5, 13]: 18.96 cm; seedling height [5, 13]: 20.25 cm; effect on growth [5, 14]: significant promoting effect; growth rate of dry weight compared with the blank control [5, 15]: 22.35%; growth rate of fresh weight compared with the blank control [5, 15]: 76.39%; growth rate of root length compared with the blank control [5, 15]: 25.09%; dry weight [5, 16]: 0.29 g; fresh weight [5, 16]: 1.42 g; root length [5, 16]: 25.37 cm; seedling height [5, 16]: 20.49 cm; effect on growth [5, 17]: significant promoting effects; growth rate (promotion rate) of dry weight compared with the blank control [5, 18]: 34.79%; growth rate (promotion rate) of fresh weight compared with the blank control [5, 18]: 97.21%; growth rate (promotion rate) of root length compared with the blank control [5, 18]: 67.40%; promotion rate of pakchoi root length ([6]; terrein 2 μg/mL): 13.51%; promotion rate of pakchoi seedling height ([6]; terrein 2 μg/mL): 21.70%; promotion rate of pakchoi root length ([6]; terrein 10 μg/mL): 18.82%; promotion rate of pakchoi seedling height ([6]; terrein 10 μg/mL): 23.26%; effect on seedling height ([6]; terrein 50 μg/mL): not significant; inhibition at 50 µg/mL ([6]; terrein 50 μg/mL, read-out: inhibition rate of pakchoi root length): 16%; inhibition at 250 µg/mL ([6]; read-out: inhibition rate of pakchoi root length): 86.8%; inhibition at 250 µg/mL ([6]; read-out: inhibition rate of pakchoi seedling height): 5.71%

Source: patent US12232493B2, “Biopesticide formulation and treatment method thereof” (Xinjiang Institute of Ecology and Geography, Chinese …, priority 2023, dated 2025)
